One substance from US20220370553A1, “PREBIOTIC-INDUCED ANTI-TUMOR IMMUNITY” (Sanford Burnham Prebys Medical Discovery Institute, priority 2019, published 2022) can be followed below.

This assay relates to Yumm1.5 tumors. Put plainly: Flow cytometry of tumor-infiltrating immune cells in Yumm1.5 tumors. Particulars: 20 days following tumor inoculation. It counts as in vivo, C57BL/6 mice. The text has this: FIG. 2B, Quantification of tumor-infiltrating effector (CD44hi) CD4+, CD8+ and CD45+ T cells from mice treated as in FIG. 2A (n=10). FIG. 2C, Quantification of tumor-infiltrating, IFN-g-producing CD4+ T cells from mice treated as in FIG. 2A (n=10). FIG. 2D, Quantification of tumor-infiltrating total DCs and subsets in mice treated as in FIG. 2A (n=10). FIG. 2E, MFI of MHC class I and MHC class II on DCs from the tumors of mice treated as in FIG. 2A (n=10). […] Graphs show the mean s.e.m. *P<0.05, **P<0.005, ***P<0.001,****P<0.0001 by two-way ANOVA with Tukey's correction (A) and by one-way ANOVA with Tukey's correction (B-E).
Tumor digestion. Tumors were excised, minced, and digested with 1 mg/ml collagenase D (Roche) and 100 μg/ml DNase I (Sigma) at 37° C. for 1 h. Digests were then passed through a 70-μm cell strainer to generate a single-cell suspension. The cells were washed twice with PBS containing 2 mM EDTA, and then stained for flow cytometry.
Flow cytometry. Tumor-derived single-cell suspensions were washed twice with FACS staining buffer, fixed for 15 min with 1% formaldehyde in PBS, washed twice, and resuspended in FACS staining buffer. For intracellular cytokine staining, cells were resuspended in complete RPMI-1640 (containing 10 mM HEPES, 1% non-essential amino acids and L-glutamine, 1 mM sodium pyruvate, 10% heat-inactivated fetal bovine serum (FBS), and antibiotics) supplemented with 50 U/mL IL-2 (NCI), […] brefeldin A (BFA, Sigma), and incubated with phorbol myristate acetate (10 ng/ml) and ionomycin (0.5 μg/ml) at 37° C. The cells were then fixed and permeabilized using a Cytofix/Cytoperm Kit (BD Biosciences) before staining. Antibodies to the following proteins were used: CD45.2 (104), CD8a (53-6.7), CD4 (GK1.5), CD44 (IM7), TNF-α (MP6-XT22), IFN-γ (XMG1.2), CD11c (N418), CD11b (M1/70), MHC class II (M5/114.15.2), PDCA (129c1), and B220 (RA3-6B2) from BioLegend, and antibodies to IL-2 (JES6-5H4) and MHC class I (AF6-88.5.5.3) from eBioscience. All data were collected on an LSRFortessa (BD Biosciences) and analyzed using FlowJo Software (Tree Star).

For mucin, the “MHC class I and MHC class II on tumor-resident DCs” value is on record as “higher levels”; the “dendritic cell subsets including pDCs and CD8a+ conventional DCs in tumors” value is listed as “increased”. Also, the “effector (CD44hi) CD4+ and CD8+ T cells, and CD45+ cells in tumors” value (compared to control mice) was “enrichment”.
